Among the data in the Bradley open melting point set (2014) are melting point values, retold here.

Each structure is given as a SMILES string.

With `Cc1c(CN2CCOC(c3ccccc3)C2C)c(=O)n(-c2ccccc2)n1C` (centres undefined) [morazone], the melting point (in general, the temperature, or range, at which the solid turns liquid) was determined as 149 °C.

Turning to `O=[N+]([O-])c1c(F)cc(F)cc1F` [1,3,5-trifluoro-2-nitrobenzene], the melting point is 4 °C.

Take `O=C(Cl)c1ccc(Cl)cc1Cl` [2,4-dichlorobenzoyl chloride]: the melting point is 18 °C.

The compound `Cc1cc(CCl)c(C)cc1CCl` [2,5-bis(chloromethyl)-p-xylene] yielded a melting point of 132 °C.

In the case of `Ic1cccc(I)c1` [m-diiodobenzene], the melting point was 37 °C.

Compound `COc1ccc(N/N=C(\C#N)c2nc(-c3ccccc3)cs2)cc1` gave a melting point of 151 °C.

With `Cc1cccc(N)c1C` [2,3-dimethylaniline], the melting point worked out at 2 °C.

The compound `Cc1ccc(S(=O)(=O)NC(=O)NN2CCCCCC2)cc1` [Tolazamide] displayed a melting point of 172 °C.

In turn, `NNC=O` [formic acid hydrazide] had a melting point of 57 °C.

Take `OC[C@@H](O)[C@@H](O)[C@@H](O)CO` [adonitol]: the melting point turned out to be 103 °C.

As for `c1cc2c3c(c1)ccc1cccc(c13)C2` [4H-Cyclopenta[def]phenanthrene], the melting point came to 116 °C.

On to `CC(=O)OC(C)=O` [Acetic anhydride], for which the melting point was -73 °C.

In turn, `Clc1cccc(Cl)c1Cl` [1,2,3-Trichlorobenzene] registered a melting point of 53 °C.

As for `OCc1ccccc1-c1ccccc1` [o-phenylbenzyl_alcohol], the melting point was 50 °C.

Take `CC(C)CC(C)C` [2,4-dimethylpentane]: the melting point was -119 °C.

The compound `CCCCNC(=S)NCCCC` [N,N'-di-n-butylthiourea] had a melting point of 66 °C.

Regarding `CCCCCCCCCCI` [1-iododecane], the melting point is -16 °C.

Take `C(#Cc1ccccc1)c1ccccc1` [diphenylacetylene]: the melting point was found to be 63 °C.

In the case of `CC(CCC(=O)O)C1CCC2C3CCC4CC(=O)CCC4(C)C3CCC12C` (centres undefined) [3-oxocholan-24-oic acid], the melting point came to 140 °C.

For `COc1ccc(C=CC(=O)c2ccccc2)cc1` [Chalcone, 4-methoxy-], the melting point is 76 °C.

In turn, `CC=1CCC[C@](C)(C)C=1/C=CC(C)=CC=CC(C)=CC(=O)O` [Retinoic acid] had a melting point of 190 °C.

The compound `CCOc1ccc(B(O)O)cc1` [4-ethoxybenzeneboronic acid] gave a melting point of 167 °C.

In the case of `O=C(Cc1ccccc1)Cc1ccccc1` [1,3-diphenylacetone], the melting point was found to be 34 °C.

With `COP(=O)(OC)C(O)C(Cl)(Cl)Cl` (centres undefined) [Dimethyl (2,2,2-trichloro-1-hydroxyethyl)phosphonate], the melting point was found to be 83 °C.

Consider `O=S(=O)(Cl)c1ccc(Br)cc1C(F)(F)F` [4-bromo-2-(trifluoromethyl)benzenesulfonyl chloride], for which the melting point is 56 °C.

`CC(C)c1cccc(B(O)O)c1` [3-isopropylbenzeneboronic acid] had a melting point of 78 °C.

`O=[N+]([O-])c1ccccc1/C=C(/Cl)c1ccccn1` [2-[(E)-1-chloro-2-(2-nitrophenyl)ethenyl]pyridine]: the melting point was 61 °C.

Consider `OB(O)c1cccc2c1Sc1ccccc1S2` [thianthrene-1-boronic acid], for which the melting point was 147 °C.

`C/C=C/C(=O)N(CCCCCCC)C(C(=O)NC(C)(C)C)c1cc2ccccc2c2ccccc12` (centres undefined) [Ugi product 148B]: the melting point is 180 °C.

In the case of `CC(C)(C)Cl` [2-chloro-2-methylpropane], the melting point was -25 °C.

The compound `Cc1cccc(O)c1` [M-Cresol] came in with a melting point of 11.8 °C.

In the case of `NCCNCCN` [N-(2-Aminoethyl)ethane-1,2-diamine], the melting point was -35 °C.

`COc1ccc2cc([N+](=O)[O-])ccc2c1C(=O)O` [2-methoxy-6-nitronaphthalene-1-carboxylic acid] gave a melting point of 187 °C.

As to `OCCN(CCO)C(CO)(CO)CO` [2,2-bis(hydroxymethyl)-2,2',2''-nitrilotriethanol], the melting point amounted to 104 °C.

`CC(=O)Oc1ccc(-c2ccccc2)cc1` [4-acetoxybiphenyl] gave a melting point of 88 °C.

`CCc1ccc(CC)cc1` [1,4-diethylbenzene]: the melting point was -43 °C.

`N#Cc1ccccc1S(=O)(=O)Cl` [2-cyanobenzenesulfonyl chloride]: the melting point came out at 67 °C.

In turn, `Clc1cccc(Cl)c1NC1=NCCN1` [Clonidine] gave a melting point of 130 °C.

Consider `Fc1ccc(F)c(F)c1F` [1,2,3,4-tetrafluorobenzene], for which the melting point was -42 °C.

Consider `COc1ccc(-c2csc(/C(C#N)=N/Nc3cc(C)ccc3C)n2)cc1`, for which the melting point stood at 156 °C.

In turn, `Cc1occc1C(=O)O` [2-methyl-3-furoic acid] returned a melting point of 98 °C.

Compound `CCCCc1ccc(C(=O)Oc2ccc(C#N)cc2)cc1` [4-cyanophenyl 4-n-butylbenzoate] registered a melting point of 68 °C.

The compound `O=C(O)C(O)C(O)C(=O)O` (centres undefined) [Tartaric acid] registered a melting point of 210 °C.

In the case of `CCOC(=O)CC(C)=O` [ethyl_acetoacetate], the melting point is -43 °C.

Regarding `COC(=O)c1ccc(OC)cc1` [methyl 4-methoxybenzoate], the melting point turned out to be 50 °C.

`CCC1(c2ccccc2)C(=O)NC(=O)N(C)C1=O` (centres undefined) [Methylphenobarbital] gave a melting point of 176 °C.

As to `NS(=O)(=O)c1ccccc1Cl` [2-chlorobenzenesulfonamide], the melting point came out at 190 °C.

In turn, `CN(N)c1ccc(C(F)(F)F)cc1[N+](=O)[O-]` [N-methyl-N-[2-nitro-4-(trifluoromethyl)phenyl]hydrazine] displayed a melting point of 66 °C.

In the case of `COc1ccc(-c2csc(/C(C#N)=N/Nc3ccc(C)cc3)n2)cc1`, the melting point came out at 152 °C.

The compound `S=P(N1CC1)(N1CC1)N1CC1` [1,1',1''-Phosphorothioyltriaziridine] gave a melting point of 51.5 °C.

In the case of `Nc1cccc(O)c1` [3-aminophenol], the melting point stood at 124 °C.

`CCCCCCCCCCCC=O` [dodecanal] showed a melting point of 12 °C.

As to `O=Cc1ccccc1C=O` [Phthalaldehyde], the melting point amounted to 56 °C.

Turning to `Cc1ccc2cc([N+](=O)[O-])ccc2n1` [2-methyl-6-nitroquinoline], the melting point worked out at 164 °C.

Consider `CC(C)(C)OC(=O)O/N=C(\C#N)c1ccccc1` [boc-on], for which the melting point worked out at 88 °C.

Consider `O=C1C=C(c2ccccc2)c2ccccc21` [3-phenyl-1H-inden-1-one], for which the melting point stood at 51 °C.

`CN(C)c1ccccc1` [N,N-dimethylaniline] had a melting point of 2 °C.

Take `CCC(C)CCCC(=O)N[C@@H](CCN)C(=O)N[C@H](C(=O)N[C@@H](CCN)C(=O)N[C@H]1CCNC(=O)[C@H]([C@@H](C)O)NC(=O)[C@H](CCN)NC(=O)[C@H](CCN)NC(=O)[C@H](CC(C)C)NC(=O)[C@@H](CC(C)C)NC(=O)[C@H](CCN)NC1=O)[C@@H](C)O` (some centres undefined) [Colistin]: the melting point turned out to be 210 °C.

Regarding `CCCCCCCCC=O` [Nonanal], the melting point was -18 °C.

As to `O=C[C@@H](O)[C@H](O)[C@H](O)CO` [D-arabinose], the melting point was determined as 156 °C.

As for `C#CCO` [propargyl_alcohol], the melting point is -17 °C.

`CCCC(=O)CCC` [4-heptanone]: the melting point is -33 °C.

Turning to `CCCCCCCCCCl` [1-chlorononane], the melting point is -39 °C.

In turn, `CC(=O)c1ccc(N2CCNCC2)cc1` [4'-(1-piperazinyl)acetophenone] yielded a melting point of 96 °C.

In turn, `O=C(O)c1ccc([N+](=O)[O-])cc1` [4-Nitrobenzoic acid] registered a melting point of 240 °C.

`O=C(O)CCCCCCCCCCC(=O)O` [Dodecanedioic acid] yielded a melting point of 129 °C.

As to `CCCCCCCCC(C)=O` [2-decanone], the melting point was determined as 3 °C.

`OCc1ccc(Cl)c(Cl)c1` [3,4-dichlorobenzyl alcohol]: the melting point came out at 38 °C.

Compound `CCCOC(=O)c1ccc(O)cc1` [Propyl 4-hydroxybenzoate] yielded a melting point of 96 °C.

For the compound `C(O)[C@H](O)[C@@H](O)[C@@H](O)CO` [L-arabitol], the melting point stood at 101 °C.

In turn, `Nc1ccccc1B(O)O` [2-aminobenzeneboronic acid] registered a melting point of 189 °C.

For the compound `C=CS(=O)(=O)c1ccccc1` [phenyl vinyl sulfone], the melting point was found to be 69 °C.

On to `C=C[C@H]1C[N@@]2CC[C@H]1C[C@H]2[C@H](O)c1ccnc2ccc(OC)cc12` [quinine], for which the melting point came to 177 °C.

The compound `C=C(C)c1ccc(C(=C)C)cc1` [p-diisopropenylbenzene] registered a melting point of 66 °C.

As for `COc1ccc(-c2ccccc2)cc1` [4-methoxybiphenyl], the melting point worked out at 91 °C.

In turn, `CC(=O)c1ccc(C)cc1` [p-methylacetophenone] had a melting point of 24 °C.

`CC(O)C1(O)CCC2C3CCC4(C)CC(O)CCC4(C)C3CCC21C` (centres undefined) [5-methylpregnane-3,17,20-triol] gave a melting point of 219 °C.

The compound `Cn1c(/C(C#N)=C/c2ccc(F)cc2)nc2ccccc21` displayed a melting point of 134 °C.

For the compound `CC(=O)[C@H]1CC[C@H]2[C@@H]3CCC4=CC(=O)CC[C@]4(C)[C@H]3CC[C@]12C` [progesterone], the melting point is 126 °C.

Consider `N#Cc1ccccc1` [benzonitrile], for which the melting point was -13 °C.

`O=Cc1cc(Br)c(O)c(Br)c1` [3,5-dibromo-4-hydroxybenzaldehyde] came in with a melting point of 182 °C.

With `CN(C)S(C)(=O)=O` [N,N-dimethylmethanesulfonamide], the melting point was 48 °C.

In turn, `N[C@@H](CCC(=O)O)C(=O)O` [L-Glutamic Acid] returned a melting point of 224 °C.

As to `Nc1ccc(F)cc1[N+](=O)[O-]` [4-fluoro-2-nitroaniline], the melting point amounted to 92 °C.

`II` [Iodine] gave a melting point of 114 °C.

In turn, `c1ccc(NNc2ccccc2)cc1` [1,2-Diphenylhydrazine] returned a melting point of 125 °C.

The compound `Clc1nsnc1-c1cccnc1` [3-chloro-4-(3-pyridyl)-1,2,5-thiadiazole] showed a melting point of 56 °C.

Take `Cc1ccccc1C(=O)O` [2-Methylbenzoic acid]: the melting point was 105 °C.

Regarding `CCNc1nc(NC(C)(C)C)nc(SC)n1` [Terbutryn], the melting point was determined as 105 °C.
